Measurements published in patent US12331061B2, “Compounds having BET, estrogen receptor, and androgen receptor degradation activity and uses thereof” (ACCUTAR BIOTECHNOLOGY INC., priority 2019, dated 2025).

Tests used:
Experiment in all cases: Degradation of BET proteins in MCF7 cells, Western blot with densitometry
Type in all cases: cell-based
[1] = target: BRD4 (Homo sapiens, UniProt O60885); design: endogenous in cells; host or cells: MCF7; conditions: 24 hour time course experiment; shown only in FIG. 1c
Description: (§1) MCF7 cells were plated in 24-well plates at 1.5×10^5 cells/well in DMEM growth medium containing 10% FBS and 1% Penicillin Streptomycin, and incubated overnight at 37° C. The following day, test compound was administered to the cells using 1000× compound stock solution prepared in DMSO at various concentrations. […] Cells were then washed with PBS and protein was collected in Laemmli sample buffer (1×; VWR International). Protein was isolated from cell lysate (approximately 25 μg) by SDS-PAGE and transferred to nitrocellulose membranes. Non-specific binding was blocked by incubating with blocking buffer (5% milk in Tris-buffered saline with 0.1% Tween 20 (“TBS-T”)) at room temperature for 60 minutes. The membrane was then incubated with primary antibodies (rabbit anti-BRD2 (1:1000, Cell Signaling), mouse anti-GAPDH (1:5,000, Santa Cruz), mouse anti-BRD3 (1:500, Abcam) and rabbit anti-BRD4 (1:500, Abcam)) overnight at 4° C., followed by washing (3 times) with TBS-T, and incubation with horseradish peroxidase-conjugated […] IgG (1:5,000, Jackson Immunoresearch) or goat anti-mouse IgG (1:5,000, Jackson Immunoresearch) for 60 minutes. After washing with TBS-T, blots were developed using an enhanced chemiluminescence kit (ThermoFisher Scientific) and the bands were imaged and quantified by densitometry (Bio-Rad).

[2] = target: T1, BRD3 (Homo sapiens, UniProt Q15059); conditions: for degradative activity towards BRD3 over a 24 hour time course: 24 hour time course experiment, shown only in FIG. 1c; for degradative activity towards BRD3: MCF7 cell line, 6 hours after administration, shown only in FIG. 1a, 1b, 2
T1 construct: endogenous in cells; host or cells: MCF7
T1 sequence (Q15059 whole entry): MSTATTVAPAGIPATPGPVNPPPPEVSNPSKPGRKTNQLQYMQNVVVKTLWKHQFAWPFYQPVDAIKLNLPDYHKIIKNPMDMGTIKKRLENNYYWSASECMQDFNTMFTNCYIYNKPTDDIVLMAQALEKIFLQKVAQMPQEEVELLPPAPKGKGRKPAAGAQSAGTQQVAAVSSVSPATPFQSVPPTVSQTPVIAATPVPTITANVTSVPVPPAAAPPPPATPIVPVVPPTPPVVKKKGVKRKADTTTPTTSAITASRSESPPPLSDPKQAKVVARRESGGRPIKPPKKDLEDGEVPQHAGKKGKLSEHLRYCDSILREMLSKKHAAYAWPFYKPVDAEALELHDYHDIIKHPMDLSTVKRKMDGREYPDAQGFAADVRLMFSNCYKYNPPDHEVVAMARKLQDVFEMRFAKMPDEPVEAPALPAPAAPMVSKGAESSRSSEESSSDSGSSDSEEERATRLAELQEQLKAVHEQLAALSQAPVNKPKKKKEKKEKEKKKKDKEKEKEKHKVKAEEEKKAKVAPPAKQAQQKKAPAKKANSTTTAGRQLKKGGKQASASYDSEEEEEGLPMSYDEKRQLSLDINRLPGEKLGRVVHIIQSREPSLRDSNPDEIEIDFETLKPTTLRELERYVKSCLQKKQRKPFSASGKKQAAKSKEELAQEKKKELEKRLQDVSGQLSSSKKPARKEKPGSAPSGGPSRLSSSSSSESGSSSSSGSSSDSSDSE
Description: as §1

[3] = target: T2, BRD2 (Homo sapiens, UniProt P25440); conditions: for degradative activity towards BRD2 over a 24 hour time course: 24 hour time course experiment, shown only in FIG. 1c; for degradative activity towards BRD2: MCF7 cell line, 6 hours after administration, shown only in FIG. 1a, 1b, 2
T2 construct: MCF7 cells were plated in 24-well plates; endogenous in cells; host or cells: MCF7
T2 sequence (P25440 whole entry): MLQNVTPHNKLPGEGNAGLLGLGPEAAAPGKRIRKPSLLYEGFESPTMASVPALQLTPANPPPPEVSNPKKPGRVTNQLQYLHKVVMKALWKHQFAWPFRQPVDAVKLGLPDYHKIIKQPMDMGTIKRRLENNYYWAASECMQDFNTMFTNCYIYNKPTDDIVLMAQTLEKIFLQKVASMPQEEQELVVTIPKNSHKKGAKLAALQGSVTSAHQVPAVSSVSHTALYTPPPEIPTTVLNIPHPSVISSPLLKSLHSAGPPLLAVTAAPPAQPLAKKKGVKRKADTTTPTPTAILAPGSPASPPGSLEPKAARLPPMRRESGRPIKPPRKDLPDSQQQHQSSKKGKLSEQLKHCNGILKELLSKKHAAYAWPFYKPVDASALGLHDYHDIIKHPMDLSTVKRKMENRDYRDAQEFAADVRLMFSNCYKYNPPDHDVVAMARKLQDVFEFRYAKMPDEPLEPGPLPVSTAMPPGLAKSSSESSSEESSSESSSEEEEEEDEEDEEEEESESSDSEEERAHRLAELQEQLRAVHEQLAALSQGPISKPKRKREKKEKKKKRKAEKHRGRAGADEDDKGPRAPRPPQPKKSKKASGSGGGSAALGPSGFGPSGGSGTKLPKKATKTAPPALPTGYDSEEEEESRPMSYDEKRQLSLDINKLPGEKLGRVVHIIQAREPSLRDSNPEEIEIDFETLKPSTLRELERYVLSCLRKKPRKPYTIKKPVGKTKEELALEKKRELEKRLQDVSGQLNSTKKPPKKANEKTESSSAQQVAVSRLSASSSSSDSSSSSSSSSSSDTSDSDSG
Description: as §1

Cc1sc2c(c1C)C(c1ccc(Cl)cc1)=N[C@@H](CC(=O)NCCCCCCCCCCC(=O)Nc1ccc(CC(=O)NC3CCC(=O)NC3=O)cc1)c1nnc(C)n1-2 (stereo partly drawn) [Compound 253034, 11-(2-((S)-4-(4-chlorophenyl)-2,3,9-trimethyl-6H-thieno[3,2-f][1,2,4]triazolo[4,3-a][1,4]diazepin-6-yl)acetamido)-N-(4-(2-((2,6-dioxopiperidin-3-yl)amino)-2-oxoethyl)phenyl)undecanamide]
degradative activity: degradative activity towards BRD4 over a 24 hour time course [1] | degradative activity towards BRD3 over a 24 hour time course [2] | degradative activity towards BRD3 [2] | degradative activity towards BRD2 over a 24 hour time course [3] | degradative activity towards BRD2 [3]

Cc1sc2c(c1C)C(c1ccc(Cl)cc1)=N[C@@H](CC(=O)NCCCCCCCCCCC(=O)Nc1cccc(CC(=O)NC3CCC(=O)NC3=O)c1)c1nnc(C)n1-2 (stereo partly drawn) [Compound 253035, 11-(2-((S)-4-(4-chlorophenyl)-2,3,9-trimethyl-6H-thieno[3,2-f][1,2,4]triazolo[4,3-a][1,4]diazepin-6-yl)acetamido)-N-(3-(2-((2,6-dioxopiperidin-3-yl)amino)-2-oxoethyl)phenyl)undecanamide]
degradative activity: degradative activity towards BRD4 over a 24 hour time course [1] | degradative activity towards BRD3 over a 24 hour time course [2] | degradative activity towards BRD3 [2] | degradative activity towards BRD2 over a 24 hour time course [3] | degradative activity towards BRD2 [3]
